In patent US11236078B2, “Heterocyclic inhibitors of the sodium channel” (priority 2014, dated 2022):

Experiments:
Format in all cases: cell-based
human Nav1.7 (hNav1.7) [1] = target: T1, human Nav1.7 (hNav1.7) (Homo sapiens, UniProt Q15858); assay: hNav1.7 slow inactivation block, automated patchclamp; conditions: HEK 293F cells stably expressing hNav1.7, slow inactivation induced in approximately 50% of channels
T1 construct: expressed in transfected cells
From the text: (§1) The generation of HEK 293F cell lines stably expressing human Nav1.7 (h Nav1.7), human Nav1.5 (hNav1.5) and rat Nav1.2 (r Nav1.2) was achieved by subcloning SCN9A, SCN5A, and SCN2A genes into inducible expression vectors followed by transfection into target cells using standard techniques. In the case of h Nav1.7, an expression vector encoding the human Navβ1 auxiliary subunit gene, SCN1B, was co-transfected with the expression vector bearing the SCN9A gene. Clones were selected using appropriate selection agents (0.3 mg/mL Zeocin and 0.8 mg/mL Geneticin) and maintained in Dulbecco's Modified Eagle medium, 10% fetal bovine serum, 1% non-essential amino acids to ˜80% confluence at 37° C. in a humidified incubator with 95% atmosphere and 5% CO2.
(§2) On the day of each experiment, cells that were grown to 80% confluence in a T75 flask were harvested for use on PatchXpress (Molecular Devices, CA, USA). Following a recovery period at 37° C. in a humidified incubator with 95% atmosphere and 5% CO2 in Dulbecco's Modified Eagle Medium, the media was replaced with an external recording solution containing (in mM): 90 TEACl, 50 NaCl, 1.8 CaCl2, 1 MgCl2, 10 HEPES, 10 glucose, adjusted to pH 7.4 with TEAOH and 300 mOsm with sucrose. The internal recording solution contained (in mM): 129 CsF, 2 MgCl2, 11 EGTA, 10 HEPES, 6 NaCl, 3 Na2ATP adjusted to pH 7.2 with CsOH and 280 mOsm with sucrose. The automated liquid handling facility of PatchXpress dispensed cells and added compound. Modulation of Nav1.7 channels by compounds was assessed by promoting the channels into the inactivated state using a conditioning voltage pulse of variable amplitude, followed by a brief hyperpolarizing pulse with a subsequent depolarized voltage step to measure the current amplitude in the presence and absence of compound.
(§3) In some cases, the potency of compounds was measured using either the Patchliner automated patch clamp platform (Nanion) or manual patch clamp techniques. Both approaches allowed the compounds to be characterized based upon the ability of a compound to modulate use- and/or state-dependence across human Nav1.7 (hNav1.7), human Nav1.5 (hNav1.5) and rat Nav1.2 (rNav1.2). The potency data is tabulated in Table 2 and is represented by six data fields. Three of the six fields represent potency data measured with the Patchliner automated platform under varying use- and state-dependent electrophysiology protocols similar to the PatchXpress protocols detailed above. For example, the second data column describes the potency of compounds in their ability to block 50% of Nav1.7 channels when the channel is repetitively activated by depolarizing voltage potentials to induce slow inactivation in approximately 50% of channels (Table 2: h Nav1.7: IC50 Slow Inactivation Block, Automated Patchclamp). The next three data fields describe the data generated from manual patchclamp electrophysiology measurements using similar methods to those employed for automated patchclamp studies.

rat Nav1.2 (rNav1.2) [2] = target: T2, rat Nav1.2 (rNav1.2) (Rattus norvegicus, UniProt P04775); assay: rNav1.2 slow inactivation block, manual patchclamp; conditions: HEK 293F cells stably expressing rNav1.2
T2 construct: expressed in transfected cells
T2 sequence (P04775 whole entry): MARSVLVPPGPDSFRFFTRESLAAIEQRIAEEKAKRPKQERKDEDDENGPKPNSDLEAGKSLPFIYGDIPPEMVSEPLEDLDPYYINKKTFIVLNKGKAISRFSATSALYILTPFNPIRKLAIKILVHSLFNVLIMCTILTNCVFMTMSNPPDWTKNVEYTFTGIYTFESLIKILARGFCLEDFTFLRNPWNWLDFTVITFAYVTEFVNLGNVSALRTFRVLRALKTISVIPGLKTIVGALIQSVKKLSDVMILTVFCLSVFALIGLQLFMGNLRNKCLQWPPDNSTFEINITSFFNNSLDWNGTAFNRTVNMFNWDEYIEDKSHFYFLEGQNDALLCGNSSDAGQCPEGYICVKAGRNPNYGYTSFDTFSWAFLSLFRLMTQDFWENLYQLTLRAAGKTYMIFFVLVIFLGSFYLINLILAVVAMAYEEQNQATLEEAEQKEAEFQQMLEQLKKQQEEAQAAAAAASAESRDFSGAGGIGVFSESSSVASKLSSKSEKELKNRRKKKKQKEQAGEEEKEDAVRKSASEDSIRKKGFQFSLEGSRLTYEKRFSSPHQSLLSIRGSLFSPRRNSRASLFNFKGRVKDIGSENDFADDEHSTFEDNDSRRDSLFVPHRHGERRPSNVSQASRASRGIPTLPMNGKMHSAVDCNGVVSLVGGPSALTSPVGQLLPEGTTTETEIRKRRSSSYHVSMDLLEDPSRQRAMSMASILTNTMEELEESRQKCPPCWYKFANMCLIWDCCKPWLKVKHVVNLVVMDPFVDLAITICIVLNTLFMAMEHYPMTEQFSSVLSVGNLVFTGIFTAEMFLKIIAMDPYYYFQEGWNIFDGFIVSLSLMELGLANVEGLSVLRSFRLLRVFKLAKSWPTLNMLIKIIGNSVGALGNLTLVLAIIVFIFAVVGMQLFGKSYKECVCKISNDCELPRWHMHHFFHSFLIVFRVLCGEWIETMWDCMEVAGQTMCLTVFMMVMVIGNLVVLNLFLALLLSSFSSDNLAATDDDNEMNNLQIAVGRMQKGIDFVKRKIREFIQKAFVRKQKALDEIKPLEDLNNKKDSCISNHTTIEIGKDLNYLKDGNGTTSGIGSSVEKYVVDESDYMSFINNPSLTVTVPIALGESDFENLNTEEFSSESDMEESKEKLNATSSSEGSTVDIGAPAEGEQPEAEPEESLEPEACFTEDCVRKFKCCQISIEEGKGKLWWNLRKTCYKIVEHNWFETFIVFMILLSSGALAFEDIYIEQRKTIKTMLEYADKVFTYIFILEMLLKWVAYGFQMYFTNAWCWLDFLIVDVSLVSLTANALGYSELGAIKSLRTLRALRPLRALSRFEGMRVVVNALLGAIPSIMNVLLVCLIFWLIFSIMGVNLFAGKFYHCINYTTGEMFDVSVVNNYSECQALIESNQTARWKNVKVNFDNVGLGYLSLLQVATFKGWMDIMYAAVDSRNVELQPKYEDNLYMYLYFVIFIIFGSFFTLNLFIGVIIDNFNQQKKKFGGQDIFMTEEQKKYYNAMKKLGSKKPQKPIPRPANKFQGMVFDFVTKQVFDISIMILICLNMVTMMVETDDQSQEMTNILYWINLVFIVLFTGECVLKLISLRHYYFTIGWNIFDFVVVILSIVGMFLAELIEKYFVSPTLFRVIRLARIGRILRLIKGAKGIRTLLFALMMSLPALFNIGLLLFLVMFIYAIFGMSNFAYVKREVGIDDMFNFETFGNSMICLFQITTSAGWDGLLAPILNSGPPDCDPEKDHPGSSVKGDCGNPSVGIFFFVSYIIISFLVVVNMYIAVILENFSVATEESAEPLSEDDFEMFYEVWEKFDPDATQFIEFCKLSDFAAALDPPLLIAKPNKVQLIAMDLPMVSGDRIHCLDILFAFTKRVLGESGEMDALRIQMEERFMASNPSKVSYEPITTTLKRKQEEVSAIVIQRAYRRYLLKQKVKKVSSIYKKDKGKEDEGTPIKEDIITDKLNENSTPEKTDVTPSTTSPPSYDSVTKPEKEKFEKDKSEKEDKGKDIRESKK
From the text: as §1, §2, §3

human Nav1.5 (hNav1.5) [3] = target: T3, human Nav1.5 (hNav1.5) (Homo sapiens, UniProt Q14524); assay: hNav1.5 slow inactivation block, manual patchclamp; conditions: HEK 293F cells stably expressing hNav1.5
T3 construct: expressed in transfected cells
From the text: as §1, with “CO2. […]” for “CO2.”
as §2, §3

human Nav1.7 (hNav1.7) [4] = target: T1, human Nav1.7 (hNav1.7); assay: hNav1.7 slow inactivation block, manual patchclamp; conditions: HEK 293F cells stably expressing hNav1.7, slow inactivation induced in approximately 50% of channels
From the text: as §1, §2, §3

rat Nav1.2 (rNav1.2) [5] = target: T2, rat Nav1.2 (rNav1.2); assay: rNav1.2 slow inactivation block, automated patchclamp; conditions: HEK 293F cells stably expressing rNav1.2
From the text: as §1, §2, §3

human Nav1.5 (hNav1.5) [6] = target: T3, human Nav1.5 (hNav1.5); assay: hNav1.5 slow inactivation block, automated patchclamp; conditions: HEK 293F cells stably expressing hNav1.5
From the text: as §1
Inhibition of the TTX-resistant Nav1.5 sodium channel, a key cardiac ion channel, can have profound effects on the duration and amplitude of the cardiac action potential and can result in arrhythmias and other heart malfunctions. To assess the potential cardiac liability of compounds at an early stage in the drug discovery process, a Nav1.5 sodium channel screening assay can be performed on Molecular Device's PatchXpress™ automated electrophysiology platform. Under voltage-clamp conditions, Nav1.5 currents can be recorded from HEK cells expressing the human Nav1.5 channel in the absence and presence of increasing concentrations of the test compound to obtain an IC50 value. The external recording solution can contain (in mM): 90 TEACl, 50 NaCl, 1.8 CaCl, 1 MgCl2, 10 HEPES, 10 glucose, adjusted to pH 7.4 with TEA-OH and to 300 mOsm with sucrose (if necessary), while the internal patch pipette solution contained (in mM): 129 CsF, 2 MgCl2, 11 EGTA, 10 HEPES, 3 Na2ATP adjusted to pH 7.2 with CsOH and to 290 mOsm with sucrose (if necessary). Nav1.5 channel currents can be evoked using a cardiac action potential waveform at 1 Hz, digitized at 31.25 kHz and low-pass filtered at 12 kHz.
as §2
In some cases, the potency of compounds was measured using either the Patchliner automated patch clamp platform (Nanion) or manual patch clamp techniques. Both approaches allowed the compounds to be characterized based upon the ability of a compound to modulate use- and/or state-dependence across human Nav1.7 (hNav1.7), human Nav1.5 (hNav1.5) and rat Nav1.2 (rNav1.2). The potency data is tabulated in Table 2 and is represented by six data fields. Three of the six fields represent potency data measured with the Patchliner automated platform under varying use- and state-dependent electrophysiology protocols similar to the PatchXpress protocols detailed above. […]

T1 sequence (Q15858 whole entry): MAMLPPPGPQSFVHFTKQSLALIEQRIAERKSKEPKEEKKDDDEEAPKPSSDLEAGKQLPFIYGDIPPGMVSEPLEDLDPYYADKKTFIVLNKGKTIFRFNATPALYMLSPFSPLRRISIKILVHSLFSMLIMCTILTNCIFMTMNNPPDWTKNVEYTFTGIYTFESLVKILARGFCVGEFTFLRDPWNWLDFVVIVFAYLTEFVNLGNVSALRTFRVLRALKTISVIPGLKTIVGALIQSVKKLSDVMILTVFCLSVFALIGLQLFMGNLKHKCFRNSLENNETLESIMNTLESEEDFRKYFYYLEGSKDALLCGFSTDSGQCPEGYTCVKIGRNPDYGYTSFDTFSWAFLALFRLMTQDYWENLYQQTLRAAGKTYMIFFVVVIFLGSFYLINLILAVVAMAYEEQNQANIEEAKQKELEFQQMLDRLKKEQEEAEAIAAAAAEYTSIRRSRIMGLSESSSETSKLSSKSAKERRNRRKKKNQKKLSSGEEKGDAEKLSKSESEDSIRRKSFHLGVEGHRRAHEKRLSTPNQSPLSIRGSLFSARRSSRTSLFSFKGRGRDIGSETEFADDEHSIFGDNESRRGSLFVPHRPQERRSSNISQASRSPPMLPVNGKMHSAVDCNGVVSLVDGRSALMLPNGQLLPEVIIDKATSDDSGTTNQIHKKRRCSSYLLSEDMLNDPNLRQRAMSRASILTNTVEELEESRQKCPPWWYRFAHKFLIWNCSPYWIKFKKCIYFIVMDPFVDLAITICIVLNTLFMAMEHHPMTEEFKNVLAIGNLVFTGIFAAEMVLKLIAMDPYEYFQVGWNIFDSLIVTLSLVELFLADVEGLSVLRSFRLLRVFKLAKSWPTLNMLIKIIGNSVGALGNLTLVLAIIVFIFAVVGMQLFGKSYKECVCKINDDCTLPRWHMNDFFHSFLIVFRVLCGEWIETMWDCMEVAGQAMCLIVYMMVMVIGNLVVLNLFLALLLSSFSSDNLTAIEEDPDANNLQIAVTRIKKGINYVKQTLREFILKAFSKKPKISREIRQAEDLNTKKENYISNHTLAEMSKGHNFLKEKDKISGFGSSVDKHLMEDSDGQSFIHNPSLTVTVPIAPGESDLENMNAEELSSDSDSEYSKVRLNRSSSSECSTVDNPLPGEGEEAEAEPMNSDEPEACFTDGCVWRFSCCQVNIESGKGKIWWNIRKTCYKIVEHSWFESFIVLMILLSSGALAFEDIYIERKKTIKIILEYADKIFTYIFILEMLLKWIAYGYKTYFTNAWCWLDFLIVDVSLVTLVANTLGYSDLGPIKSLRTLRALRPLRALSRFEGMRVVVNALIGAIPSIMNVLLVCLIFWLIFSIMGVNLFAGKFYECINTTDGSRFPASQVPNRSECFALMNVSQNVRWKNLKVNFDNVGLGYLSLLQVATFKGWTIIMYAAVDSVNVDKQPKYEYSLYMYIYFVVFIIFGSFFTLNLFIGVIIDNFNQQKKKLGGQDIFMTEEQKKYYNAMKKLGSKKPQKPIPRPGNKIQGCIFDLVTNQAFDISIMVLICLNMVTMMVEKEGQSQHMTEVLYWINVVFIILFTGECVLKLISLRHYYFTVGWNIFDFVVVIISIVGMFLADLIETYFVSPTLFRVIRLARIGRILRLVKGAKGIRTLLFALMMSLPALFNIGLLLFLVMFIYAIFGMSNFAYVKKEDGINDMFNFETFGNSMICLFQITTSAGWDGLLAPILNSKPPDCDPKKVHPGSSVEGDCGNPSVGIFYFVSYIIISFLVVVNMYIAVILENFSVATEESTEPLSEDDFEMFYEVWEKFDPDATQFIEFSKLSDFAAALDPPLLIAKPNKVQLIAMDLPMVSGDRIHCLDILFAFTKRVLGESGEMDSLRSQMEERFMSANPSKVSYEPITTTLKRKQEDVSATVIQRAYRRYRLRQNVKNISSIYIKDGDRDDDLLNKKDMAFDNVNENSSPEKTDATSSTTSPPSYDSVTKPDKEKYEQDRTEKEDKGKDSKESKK
T1 sequence (Q07699 19-218 partner): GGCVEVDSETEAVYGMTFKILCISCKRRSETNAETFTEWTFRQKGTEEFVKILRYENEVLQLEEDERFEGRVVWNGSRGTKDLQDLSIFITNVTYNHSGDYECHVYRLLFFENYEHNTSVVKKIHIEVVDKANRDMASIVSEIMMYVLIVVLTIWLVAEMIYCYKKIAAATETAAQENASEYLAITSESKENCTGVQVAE

Compound | IC50 (human Nav1.7 (hNav1.7) [1]) | IC50 (rat Nav1.2 (rNav1.2) [2]) | IC50 (human Nav1.7 (hNav1.7) [4]) | IC50 (rat Nav1.2 (rNav1.2) [5]) | IC50 (human Nav1.5 (hNav1.5) [3]) | IC50 (human Nav1.5 (hNav1.5) [6])
COc1cc(Oc2cc(F)c(S(=O)(=O)Nc3nc(Cc4ccccc4)ns3)cc2F)cc(C(F)(F)F)c1 [Compound 41, N-(3-benzyl-1,2,4-thiadiazol-5-yl)-2,5-difluoro-4-[3-methoxy-5-(trifluoromethyl)phenoxy]benzene-1-sulfonamide] | > 32000 nM |  | > 3200 nM |  |  | > 32000 nM
O=S(=O)(Nc1ncns1)c1cc(F)c(Oc2cc(F)cc(Cl)c2)cc1F [Compound 29, 4-(3-chloro-5-fluorophenoxy)-2,5-difluoro-N-(1,2,4-thiadiazol-5-yl)benzene-1-sulfonamide] | 14600 nM | > 32000 nM | 678 nM | > 32000 nM | ~7570 nM | 
O=C(NCc1cccc(-c2cc(C(F)(F)F)cc(C(F)(F)F)c2)c1)[C@@H]1C[C@H](F)CN1 [Compound 52, (2S,4S)-N-((3′,5′-bis(trifluoromethyl)-[1,1′-biphenyl]-3-yl)methyl)-4-fluoropyrrolidine-2-carboxamide] | 4440 nM | 928 nM | 466 nM | 5540 nM | 1040 nM | 4050 nM
O=C(NCc1cccc(-c2cc(C(F)(F)F)cc(C(F)(F)F)c2)c1)C1CCCC1 [Compound 56, N-({3-[3,5-bis(trifluoromethyl)phenyl]phenyl}methyl)cyclopentanecarboxamide] | 712 nM | 219 nM | 173 nM | 5850 nM | 462 nM | 
COc1cc(Oc2cc(F)c(S(=O)(=O)Nc3nc(CN4CCOCC4)ns3)cc2F)cc(C(F)(F)F)c1 [Compound 45, 2,5-difluoro-4-[3-methoxy-5-(trifluoromethyl)phenoxy]-N-[3-(morpholin-4-ylmethyl)-1,2,4-thiadiazol-5-yl]benzene-1-sulfonamide] | > 32000 nM |  | > 10000 nM |  |  | > 32000 nM

Second part, led by results:

IC50 (human Nav1.7 (hNav1.7) [1]) | IC50 (rat Nav1.2 (rNav1.2) [2]) | IC50 (human Nav1.7 (hNav1.7) [4]) | IC50 (rat Nav1.2 (rNav1.2) [5]) | Compound | IC50 (human Nav1.5 (hNav1.5) [3]) | IC50 (human Nav1.5 (hNav1.5) [6])
750 nM | 387 nM | 286 nM | ~1220 nM | O=S(=O)(Nc1ncns1)c1cc(F)c(Oc2cc(C3CNC3)cc(C(F)(F)F)c2)cc1F [Compound 31, 4-(3-(azetidin-3-yl)-5-(trifluoromethyl)phenoxy)-2,5-difluoro-N-(1,2,4-thiadiazol-5-yl)benzenesulfonamide] | ~1460 nM | 
> 32000 nM |  | > 10000 nM |  | N#Cc1cc(Oc2cc(C(F)(F)F)cc(C(F)(F)F)c2)ccc1S(=O)(=O)Nc1nncs1 [Example 43, 4-[3,5-bis(trifluoromethyl)phenoxy]-2-cyano-N-(1,3,4-thiadiazol-2-yl)benzene-1-sulfonamide] |  | > 32000 nM
~7680 nM |  | 404 nM |  | O=S(=O)(Nc1ncns1)c1cc(F)c(Oc2cc(N3CC(O)C3)cc(C(F)(F)F)c2)cc1F [Compound 49, 2,5-difluoro-4-[3-(3-hydroxyazetidin-1-yl)-5-(trifluoromethyl)phenoxy]-N-(1,2,4-thiadiazol-5-yl)benzenesulfonamide] | 1600 nM | ~17200 nM
> 32000 nM |  | > 3200 nM |  | COc1cc(Oc2cc(F)c(S(=O)(=O)Nc3nc(C)ns3)cc2F)cc(C(F)(F)F)c1 [Compound 40, 2,5-difluoro-4-[3-methoxy-5-(trifluoromethyl)phenoxy]-N-(3-methyl-1,2,4-thiadiazol-5-yl)benzene-1-sulfonamide] |  | > 32000 nM
8430 nM | 479 nM | 470 nM | 18700 nM | O=C(NCc1cc(F)c(Oc2cc(C(F)(F)F)cc(C(F)(F)F)c2)cc1F)c1ncns1 [Compound 17, N-({4-[3,5-bis(trifluoromethyl)phenoxy]-2,5-difluorophenyl}methyl)-1,2,4-thiadiazole-5-carboxamide] | ~2500 nM | 
~3060 nM |  | 142 nM |  | O=S(=O)(Nc1ncns1)c1cc(F)c(Oc2cc(N3CCC3)cc(C(F)(F)F)c2)cc1F [Compound 48, 4-[3-(azetidin-1-yl)-5-(trifluoromethyl)phenoxy]-2,5-difluoro-N-(1,2,4-thiadiazol-5-yl)benzenesulfonamide] | ~650 nM | ~6660 nM
